Reference: patent US20230066049A1, “PEPTIDES USEFUL IN PRESERVATION AND/OR RESTORATION OF FUNCTIONAL PANCREATIC ISLETS AND IN TREATING DIABETES” (THE NATIONAL INSTITUTE FOR BIOTECHNOLOGY IN THE NEGEV LTD., priority 2020, published 2023)
Read-outs that look alike come from different tables or passages of the source.

Columns and labels:
VDAC1 = VDAC1 IHC/IF staining of Langerhans islets of STZ/HFD-32-fed mice; assay type: in vivo, mouse
Procedure: Male C57BL/6 mice were purchased from Envigo (Jerusalem, Israel). In order to generate the diabetes-based steatosis-NASH mouse model, 2-day-old mice were subjected to a single, low dose subcutaneous injection of streptozotocin (STZ) (200 μg/mouse) and then were fed with the HFD-32 high fat diet starting at the end of week 4. The mice manifested steatosis at 6 weeks and NASH at 8 weeks. These mice are designated herein interchangeably as “NAFLD/diabetes mice model” and “STZ/HFD-32-fed mice”. Mice affected with steatosis were treated with R-Tf-D-LP4 (14 mg/kg) from week 6 to week 8, and mice affected with NASH from week 8 to week 10. The R-Tf-D-LP4 peptide at 14 mg/kg (in 100 μl of Hank's balanced salts solution (HBSS) without calcium) was administered intravenously three times a week. […]
(§1) At the end of the experiment, the mice were sacrificed by CO2 inhalation and the livers and pancreases were removed. Livers were photographed and the lipid content was assessed. […]
The expression of VDAC1 was examined in the pancreas of STZ/HFD-32 diet-fed mice, representing NAFLD affected mice on a diabetic background with and without R-Tf-D-LP4 peptide treatment as compared to the levels in islets from mice fed with chow-diet (FIG. 5). Formaldehyde-fixed, paraffin-embedded pancreas sections were analyzed by IHC staining for VDAC1 using anti-VDAC1 specific antibodies. […]

ob/ob mice [1] = settings: diabetic (ob/ob) mice and NAFLD affected mice; Pittala et al., Cells 2020; cited from earlier work
Glut-2 = Glut-2 IF staining of pancreatic sections of STZ/HFD-32-fed mice; assay type: in vivo, mouse; settings: STZ/HFD-32-fed mice at steatosis
Procedure: (§2) Male C57BL/6 mice were purchased from Envigo (Jerusalem, Israel). In order to generate the diabetes-based steatosis-NASH mouse model, 2-day-old mice were subjected to a single, low dose subcutaneous injection of streptozotocin (STZ) (200 μg/mouse) and then were fed with the HFD-32 high fat diet starting at the end of week 4. The mice manifested steatosis at 6 weeks and NASH at 8 weeks. These mice are designated herein interchangeably as “NAFLD/diabetes mice model” and “STZ/HFD-32-fed mice”. Mice affected with steatosis were treated with R-Tf-D-LP4 (14 mg/kg) from week 6 to week 8, and mice affected with NASH from week 8 to week 10. The R-Tf-D-LP4 peptide at 14 mg/kg (in 100 μl of Hank's balanced salts solution (HBSS) without calcium) was administered intravenously three times a week. Control groups were intravenously injected with 100 μl of 0.8% DMSO in HBSS buffer from week 6 to week 8 for steatosis affected mice and from week 8 to week […] for NASH affected mice. The final blood DMSO concentration was 0.07% in control and peptide-treated mice.
as §1

ob/ob mice [2] = experiment: Ob/Ob diabetes mouse model: blood glucose, body weight, Langerhans islets; assay type: in vivo; settings: 14 mg/kg intravenous three times a week
Procedure: Six week old male (C57BL/6) Ob/Ob (Jackson Laboratory, Bar Harbor, Me.) mice were treated with R-Tf-D-LP4 (14 mg/Kg) from week 6 to week 13 by intravenous administration of the R-Tf-D-LP4 peptide in 100 μl of Hank's balanced salts solution (HBSS) without calcium three times a week. A control group received 100 μl of 0.8% DMSO in HBSS buffer injected intravenously. The final blood DMSO concentration was 0.07% in both control and peptide-treated mice. Blood glucose levels were measured once a week. At the end of the experiment, the mice were sacrificed, and the pancreas was removed and fixed with formaldehyde, embedded in paraffin, sectioned, and subjected to immunefluorescent (IF). The experimental protocol used in the mouse model was approved by the Institutional Animal Care and Use Committee.
(§3) Immunohistochemistry (IHC) and immunofluorescence (IF) staining was performed on 5 μm-thick formalin-fixed and paraffin-embedded pancreatic tissue sections. Sections were deparaffinized (5 minutes in xylene, 3 times), followed by rehydration with a graded ethanol series (50%, 70%, 95%, 100%). Antigen retrieval was performed by 20 min incubation in preheated 0.01 M citrate buffer, pH 6.0 at 95-98° C. Sections were washed with PBS pH 7.4 containing 0.1% Triton-X100 (PBST), incubated in 10% NGS and 1% BSA for 2 h, followed by overnight incubation at 4° C. with primary antibodies (see Table 1). Sections were then washed with PBST. For IHC staining, endogenous peroxidase activity was blocked by incubating the sections in 3% H2O2 for 15 min. Following washing with PBST, sections were incubated for 2 h with the appropriate secondary HRP-conjugated antibodies. Sections were washed with PBST and peroxidase activity was visualized by incubating with DAB. After rinsing in water, the sections were counter-stained with hematoxylin, dehydrated with a graded ethanol series (50-100%), incubated in xylene, and mounted with mounting medium. Finally, images from the sections were collected using an automatic digital slide scanner (Panoramic
MIDI II, 3DHISTECH) with the same light intensity and exposure time. Non-specific control experiments were carried out using the same protocols but omitting incubation with primary antibodies. For IF staining, sections were incubated for 2 h with the appropriate secondary Alexa Fluor conjugated antibodies. Sections were washed with PBST, counter—stained with DAPI (0.07 μg/ml), washed with PBST, and mounted with mounting media. […]
STZ/HFD-32-fed mice at the end of study before sacrifice. In the case of the ob/ob mice, weekly blood samples were collected from the tail, and blood glucose levels were measured immediately using an Accu-Check Performa blood glucose meter.

Langerhans islets = experiment: Glucagon IHC staining of Langerhans islets (islet morphology) in STZ/HFD-32-fed mice; assay type: in vivo, mouse
Procedure: as §2, §1

STZ/HFD-32-fed mice [3] = settings: 2019, cited from earlier work
STZ/HFD-32-fed mice [4] = experiment: NAFLD/diabetes mice model (STZ/HFD-32-fed mice): number and size of Langerhans islets, blood glucose; assay type: in vivo, mouse; settings: for Average No. of islets per mouse / Total No. of islets: 14 mg/kg i.v. three times a week
Text: The HFD-32 diet was as described previously (Fujii, M., et al. Med Mol Morphol, 2013. 46(3): p. 141-52; 507.6 kcal/100 g, 56.7% kcal from fat) comprising 5% egg white powder (MM Ingredients, Wimborne, UK), 6.928% lactose (Pharma Grade, Nelson, UK), 15.88% beef fat (contains 80% fat), 5% AIN93G-mineral mixture, 0.002% tertiary butyl hydroquinone and 1.4% AIN93VX-vitamin mix (MP Biomedical, Illkirch, France), 24.5% milk casein (Shaanxi Fuheng Biotechnology, Xi'an, China), 20% safflower oil (high oleic acid content) (Bustan Briut, Galil, Israel), 6.45% sucrose, 0.43% L-cysteine, 5.5% crystalline cellulose (Sigma), 0.36% choline bitartrate and 8.25% maltodextrin (Bulk Powders, Colchester, UK). Control C57BL/6 mice were fed with a standard chow diet (408.4 kcal/100 g, 57% kcal from carbohydrates, 27% kcal from proteins, 16% from fat (V1154-703, S sniff Spezialdaten, Sosset, Germany).
as §2
At the end of the experiment, the mice were sacrificed by CO2 inhalation and the livers and pancreases were removed. Livers were photographed and the lipid content was assessed. For this purpose, part of the liver was frozen in OCT (optimal cutting temperature) compound, embedded, sectioned, and stained with oil red O. The pancreases were fixed with formaldehyde, embedded in paraffin, sectioned, and subjected to immunohistochemical (IHC) or immunefluorescent (IF) staining, as described below.
as §3
MIDI II, 3DHISTECH) with the same light intensity and exposure time. Non-specific control experiments were carried out using the same protocols but omitting incubation with primary antibodies. For IF staining, sections were incubated for 2 h with the appropriate secondary Alexa Fluor conjugated antibodies. […]

3T3-L1 adipocytes = experiment: Oil Red O staining of intracellular lipids in adipocytes; assay type: cell-based, mouse; settings: 10 μM peptide, 24 h
Procedure: 3T3-L1 mouse embryo fibroblasts were purchased from the American Type Culture Collection (ATCC Manassas, Va.) and maintained in a humidified atmosphere of 5% CO2, 95% air at 37° C. in Dulbecco's modified Eagle's growth medium (DMEM) with high glucose ([…]), supplemented with 10% fetal calf serum, and 1% penicillin-streptomycin. For R-Tf-D-LP4 peptide treatment, […] cells (6×10^5/ml at 70-80% confluence) were incubated with the R-Tf-D-LP4 peptide in 500 μl serum-free medium for 24 h at 37° C. and 5% CO2. The cells were then stained with Oil red O as described below.
3T3-L1 cells were washed with PBS, fixed with formaldehyde for 15 min, and then subjected to Oil Red O staining for 30 min at room temperature followed by staining with Hematoxylin. Microscope images were collected to visualize the red oil droplets in the cells. Finally, the cells were washed with H2O followed by three washes with 60% isopropanol with gentle rocking. The Oil Red O stain was extracted with 100% isopropanol for 5 min and the absorbance at 492 nm was measured and normalized to the same number of cells counted before stain extraction.

Ki-67 = Ki-67 IF staining (proliferation) in pancreas of STZ/HFD-32-fed mice; assay type: in vivo, mouse; settings: steatosis stage; compared to chow diet-fed and STZ/HFD-32-fed mice
Procedure: as §2, §1

PDX1 = PDX1 IF co-staining in pancreas of STZ/HFD-32-fed mice; assay type: in vivo, mouse
Procedure: as §2, §1

db/db mice = settings: Zhang et al., 2019; cited from earlier work

D-Lys-D-Trp-D-Thr-D-Trp-D-Lys-D-Asn-D-Ser-D-Asn-D-Gly-D-Ala-D-Thr-D-Trp-D-Ala-D-Leu-D-Asn-D-Val-D-Ala-D-Thr-D-Glu-D-Leu-D-Lys-D-Lys-D-Glu-D-Trp-D-Thr-D-Trp-D-Ser-His-Arg-Pro-Tyr-Ile-Ala-His [R-Tf-D-LP4]
VDAC1 staining level in the islets (VDAC1; IHC, 14 mg/kg): this level decreased | islet morphology and size (IF co-staining VDAC1 and insulin) (VDAC1; steatosis stage): displayed a normal morphology and large islets | blood glucose levels (ob/ob mice [1]): reduced blood glucose levels | Glut-2 expression in islets (Glut-2): re-expressed | blood glucose levels (ob/ob mice [2]): reduced the levels of blood glucose | insulin production (ob/ob mice [2]): improved insulin production | number of Langerhans islets (ob/ob mice [2]; H&E and anti-insulin staining): increased the number of islets | body weight (weekly average weight) (ob/ob mice [2]; followed for 7 weeks): no such effect was observed | islet morphology (localization of glucagon-producing cells) (Langerhans islets; NASH stage): completely restored | islet morphology (localization of glucagon-producing cells) (Langerhans islets; steatosis stage): improved to some extent | β-oxidation in the liver (STZ/HFD-32-fed mice [3]; STZ/HFD-32-fed mice, Pittala et al.): accelerated β-oxidation in the liver | liver pathology (STZ/HFD-32-fed mice [3]; mouse model for NAFLD, WO 2017/037711, Pittala et al.): reverse liver pathology to a normal-like state | number of islets per mouse, Islet size, 1-50 nm (STZ/HFD-32-fed mice [4]; NASH): 16 | number of islets per mouse, Islet size, 51-100 nm (STZ/HFD-32-fed mice [4]; NASH): 12 | number of islets per mouse, Islet size, 101-150 nm (STZ/HFD-32-fed mice [4]; NASH): 4 | number of islets per mouse, Islet size, 151-300 nm (STZ/HFD-32-fed mice [4]; NASH): 3 | Average No. of islets per mouse (STZ/HFD-32-fed mice [4]; NASH, week 8 to 10): 35 | Total No. of islets (STZ/HFD-32-fed mice [4]; NASH, week 8 to 10, n = 10): 354 (n = 10) | size and number of Langerhans islets (STZ/HFD-32-fed mice [4]; STZ/HFD-32-fed mice, steatosis or NASH stage): both the size and the number of Langerhans islets were increased | blood glucose levels (STZ/HFD-32-fed mice [4]; STZ/HFD-32 mice model): reduced blood glucose levels | insulin content within the islets (STZ/HFD-32-fed mice [4]; STZ/HFD-32 mice model): increased insulin content within the islets | number of islets per mouse, Islet size, 1-50 nm (STZ/HFD-32-fed mice [4]; Steatosis): 16 | number of islets per mouse, Islet size, 51-100 nm (STZ/HFD-32-fed mice [4]; Steatosis): 8 | number of islets per mouse, Islet size, 101-150 nm (STZ/HFD-32-fed mice [4]; Steatosis): 2 | number of islets per mouse, Islet size, 151-300 nm (STZ/HFD-32-fed mice [4]; Steatosis): 1 | Average No. of islets per mouse (STZ/HFD-32-fed mice [4]; Steatosis, week 6 to 8): 27 | Total No. of islets (STZ/HFD-32-fed mice [4]; Steatosis, week 6 to 8, n = 17): 451 (n = 17) | further increase of the number of islets over chow diet level (STZ/HFD-32-fed mice [4]; mice affected with NASH): 30% | number of the islets compared with chow diet-fed mice (STZ/HFD-32-fed mice [4]; mice with steatosis): to the level observed in mice fed with chow diet | decrease in the amount of lipid (extraction of Oil red O stain) (3T3-L1 adipocytes): 90% | increase in number of Ki-67 positive cells in the islet interior (Ki-67): about 8 fold | increase in number of Ki-67 positive cells outside of the islets (Ki-67): ~3 fold | PDX1 staining level (PDX1; co-staining PDX1 and glucagon, over the level in control chow-fed mice): highly increased | PDX1 staining level (PDX1; co-staining PDX1 and insulin): showed a higher level of staining for PDX1

O=C(CC(CO)N1CCN(c2ccc(OC(F)(F)F)cc2)CC1)Nc1ccc(Cl)cc1 (stereo not drawn) [VBIT-4, N-(4-chlorophenyl)-4-hydroxy-3-(4-(4-(trifluoromethoxy)phenyl)piperazin-l-yl) butanamide]
glucose tolerance (db/db mice): maintained normal glucose tolerance | hyperglycemia (db/db mice): prevented hyperglycemia | insulin secretion (db/db mice): stimulated insulin secretion
